The target in this test is T1, JNK3 (Homo sapiens, UniProt P53779).
T1 construct: One such construct encodes amino acid residues Ser40-Glu402 of JNK3α1 and is preceded by Met and Gly residues; Met-Gly (initiation methionine plus glycine added for the NcoI site); made in house; host or cells: E. coli BL21 (DE3)
Put plainly: JNK inhibition assay: spectrophotometric coupled-enzyme assay with activated JNK3. It is filed as biochemical. The note with it: activated JNK3 10 nM, 10 μM ATP, 200 μM EGF receptor peptide, 30° C., competitive inhibition model. The text has this: A BLAST search of the EST database using the published JNK3α1 cDNA as a query identified an EST clone (#632588) that contained the entire coding sequence for human JNK3α1. Polymerase chain reactions (PCR) using pfu polymerase (Strategene) were used to introduce restriction sites into the cDNA for cloning into the pET-15B expression vector at the NcoI and BamHI sites. The protein was expressed in E. coli. […] This truncation corresponds to Ser 2 of JNK1 and JNK2 proteins, and is preceded by a methionine (initiation) and a glycine residue. The glycine residue was added in order to introduce an NcoI site for cloning into the expression vector. In addition, systematic C-terminal truncations were performed by PCR to identify a construct that give rise to diffraction-quality crystals.
5 mg of JNK3 was diluted to 0.5 mg/ml in 50 mM HEPES buffer, pH 7.5, containing 100 mM NaCl, 5 mM DTT, 20 mM MgCl2 and 1 mM ATP. GST-MKK7(DD) was added at a molar ratio of 1:2.5 GST-MKK7:JNK3. After incubation for 30 minutes at 25° C., the reaction mixture was concentrated 5-fold by ultrafiltration in a Centriprep-30 (Amicon, Beverly, Mass.), diluted to 10 ml and an additional 1 mM ATP added. This procedure was repeated three times to remove ADP and replenish ATP. The final addition of ATP was 5 mM and the mixture incubated overnight at 4° C.
The activated JNK3/GST-MKK7(DD) reaction mixture was exchanged into 50 mM HEPES buffer, pH 7.5, containing 5 mM DTT and 5% glycerol (w/v) by dialysis or ultrafiltration. The reaction mixture was adjusted to 1.1 M potassium phosphate, pH 7.5, and purified by hydrophobic interaction chromatography (at 25° C.) using a Rainin Hydropore column. […] Activated JNK3 (i.e. doubly phosphorylated JNK3) was stored at −70° C. at 0.25-1 mg/ml.
Compounds were assayed for the inhibition of JNK3 by a spectrophotometric coupled-enzyme assay. In this assay, a fixed concentration of activated JNK3 (10 nM) was incubated with various concentrations of a potential inhibitor dissolved in DMSO for 10 minutes at 30° C. in a buffer containing 0.1 M HEPES buffer, pH 7.5, containing 10 mM MgCl2, 2.5 mM phosphoenolpyruvate, 200 μM NADH, 150 μg/mL pyruvate kinase, 50 μg/mL lactate dehydrogenase, and 200 μM EGF receptor peptide. […] The reaction was initiated by the addition of 10 μM ATP and the assay plate is inserted into the spectrophotometer's assay plate compartment that was maintained at 30° C. The decrease of absorbance at 340 nm was monitored as a function of time. The rate data as a function of inhibitor concentration was fitted to competitive inhibition kinetic model to determine the Ki.

Consider 54 molecules from patent US7612065B2, “Inhibitors of c-JUN N-terminal kinases (JNK)” (priority 2007, dated 2009).

Each structure is given as a SMILES string.

T1 sequence (P53779 40-402): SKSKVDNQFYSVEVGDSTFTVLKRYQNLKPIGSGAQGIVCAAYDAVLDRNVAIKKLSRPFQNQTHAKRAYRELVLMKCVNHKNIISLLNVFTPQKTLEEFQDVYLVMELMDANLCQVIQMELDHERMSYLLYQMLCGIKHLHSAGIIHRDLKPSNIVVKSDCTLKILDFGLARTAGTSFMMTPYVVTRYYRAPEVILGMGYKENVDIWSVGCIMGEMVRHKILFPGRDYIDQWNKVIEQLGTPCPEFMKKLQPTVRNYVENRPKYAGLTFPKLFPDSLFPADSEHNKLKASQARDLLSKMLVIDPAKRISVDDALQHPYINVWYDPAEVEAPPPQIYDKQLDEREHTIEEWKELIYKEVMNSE

In general, Ki refers to a dissociation constant, usually derived from enzyme kinetics or from competition with a known ligand. With `Cc1ccc2c(c1)N(Cc1cc(F)cc3c1OCOC3)C(=O)/C2=N\O` [Compound 149], the Ki was less than 1000 nM.
The figure for `CC(=O)Nc1cccc(-c2ccc3c(c2)N(Cc2cc(F)cc4c2OCOC4)C(=O)/C3=N\O)c1` [Compound 317] is less than 1000 nM; for `COc1cc(CN2C(=O)/C(=N\O)c3cc(Cl)cc(C)c32)cc(OC)c1` [Compound 102] it is less than 1000 nM.
The figure for `O=C1/C(=N\O)c2ccc(C(F)(F)F)cc2N1Cc1cc(F)cc2c1OCOC2` [Compound 165] is less than 1000 nM.
To `Cc1ccc(CN2C(=O)/C(=N\O)c3ccccc32)cc1` [Compound 8] belongs no less than 1000 nM; to `O=C(Cc1cccs1)Nc1ccc2c(c1)N(Cc1cc(F)cc3c1OCOC3)C(=O)/C2=N\O` [Compound 219], less than 1000 nM.
On to `O=C(Nc1cccc(F)c1)c1ccc2c(c1)N(Cc1cc(F)cc3c1OCOC3)C(=O)/C2=N\O` [Compound 229], for which the Ki is no less than 1000 nM.
To `COc1cc(CN2C(=O)/C(=N\O)c3c(-c4ccccc4)cccc32)cc(OC)c1` [Compound 200] belongs no less than 1000 nM.
To `Cc1ccc(CN2C(=O)/C(=N\O)c3cc(F)ccc32)cc1` [Compound 56] belongs no less than 1000 nM.
To `Nc1ccc2c(c1)N(Cc1cc(F)cc3c1OCOC3)C(=O)/C2=N\O` [Compound 208] belongs less than 1000 nM.
Take `O=C1/C(=N\O)c2cc(Cl)ccc2N1Cc1cccc(Oc2ccccc2)c1` [Compound 73]: the inhibition constant Ki was no less than 1000 nM.
The figure for `O=C1/C(=N\O)c2cc(N(CCCc3ccccc3)CCCc3ccccc3)ccc2N1Cc1cc(F)cc2c1OCOC2` [Compound 312] is no less than 1000 nM; for `Cc1cccc(CN2C(=O)/C(=N\O)c3ccccc32)c1` [Compound 19] it is no less than 1000 nM.
To `O=C(Nc1ccc2c(c1)N(Cc1cc(F)cc3c1OCOC3)C(=O)/C2=N\O)c1ccccc1F` [Compound 341] belongs less than 1000 nM; to `O=C1/C(=N\O)c2ccc(-c3ccccc3)cc2N1Cc1cc(F)cc2c1OCOC2` [Compound 153], less than 1000 nM.
To `O=C(Nc1ccc2c(c1)N(Cc1cc(F)cc3c1OCOC3)C(=O)/C2=N\O)c1ccccc1Br` [Compound 343] belongs less than 1000 nM; to `COc1ccc(CN2C(=O)/C(=N\O)c3cc(Cl)cc(C)c32)cc1` [Compound 97], no less than 1000 nM.
Turning to `O=C1/C(=N\O)c2cc(OC(F)(F)F)ccc2N1Cc1cc(F)cc2c1OCOC2` [Compound 108], the inhibition constant Ki is no less than 1000 nM.
The figure for `COc1ccc(S(=O)(=O)Nc2ccc3c(c2)N(Cc2cc(F)cc4c2OCOC4)C(=O)/C3=N\O)cc1` [Compound 265] is no less than 1000 nM; for `CCC(NC(=O)c1ccc2c(c1)N(Cc1cc(F)cc3c1OCOC3)C(=O)/C2=N\O)c1ccccc1` (stereo not drawn) [Compound 243] it is no less than 1000 nM.
The figure for `O=C(NCc1cccc(Cl)c1)c1ccc2c(c1)N(Cc1cc(F)cc3c1OCOC3)C(=O)/C2=N\O` [Compound 234] is no less than 1000 nM.
The figure for `COc1ccccc1-c1nc(CN2C(=O)/C(=N\O)c3ccccc32)no1` [Compound 64] is no less than 1000 nM.
For `COc1cc(CN2C(=O)/C(=N\O)c3ccc(C)cc32)cc(OC)c1` [Compound 150], the inhibitory constant (Ki) is less than 1000 nM.
To `Cc1cc(F)ccc1C(=O)c1ccc2c(c1)/C(=N/O)C(=O)N2Cc1cc(F)cc2c1OCOC2` [Compound 319] belongs less than 1000 nM.
To `O=C(Nc1ccc2c(c1)N(Cc1cc(F)cc3c1OCOC3)C(=O)/C2=N\O)c1cccc(Cl)c1Cl` [Compound 251] belongs less than 1000 nM; to `O=C1/C(=N\O)c2cc(Cl)ccc2N1Cc1cccc(C(F)(F)F)c1` [Compound 15], no less than 1000 nM.
To `O=C(Nc1ccc2c(c1)N(Cc1cc(F)cc3c1OCOC3)C(=O)/C2=N\O)C1CCCCC1` [Compound 346] belongs no less than 1000 nM; to `O=C1/C(=N\O)c2ccccc2N1Cc1ccc(Cl)cc1` [Compound 10], no less than 1000 nM; to `COc1cc(CN2C(=O)/C(=N\O)c3c(Br)cccc32)cc(OC)c1` [Compound 199], less than 1000 nM.
As for `O=C(NCCN1CCOCC1)c1ccc2c(c1)N(Cc1cc(F)cc3c1OCOC3)C(=O)/C2=N\O` [Compound 240], the Ki was no less than 1000 nM.
In the case of `O=C1/C(=N\O)c2cc(Br)ccc2N1Cc1cc(F)cc2c1OCOC2` [Compound 278], the Ki is less than 1000 nM.
For the molecule `O=C(c1ccc2c(c1)N(Cc1cc(F)cc3c1OCOC3)C(=O)/C2=N\O)N1CCOCC1` [Compound 228], the inhibitory constant (Ki) was no less than 1000 nM.
For `COc1ccccc1-c1nc(CN2C(=O)/C(=N\O)c3cc(F)ccc32)no1` [Compound 81], the Ki was no less than 1000 nM.
In the case of `O=C1/C(=N\O)c2cc(F)ccc2N1Cc1cc(F)cc2c1OCOC2` [Compound 85], the Ki was less than 1000 nM.
As for `COc1ccccc1-c1nc(CN2C(=O)/C(=N\O)c3cc(C)cc(C)c32)no1` [Compound 90], the Ki was no less than 1000 nM.
To `Cc1cc2c(cc1C(=O)c1ccccc1)/C(=N/O)C(=O)N2Cc1cc(F)cc2c1OCOC2` [Compound 351] belongs no less than 1000 nM; to `COc1ccc(C(=O)Nc2ccc3c(c2)N(Cc2cc(F)cc4c2OCOC4)C(=O)/C3=N/O)cc1OCc1ccccc1` [Compound 321], less than 1000 nM; to `Cc1cc(C)c2c(c1)/C(=N/O)C(=O)N2Cc1cc(F)cc2c1OCOC2` [Compound 95], no less than 1000 nM.
To `COc1cc(CN2C(=O)/C(=N\O)c3c(C)cc(C)cc32)cc(OC)c1` [Compound 166] belongs less than 1000 nM.
To `O=C1/C(=N\O)c2cc(Cl)ccc2N1Cc1cc(F)cc2c1OCCO2` [Compound 75] belongs less than 1000 nM; to `COc1cccc(OC)c1C(=O)Nc1ccc2c(c1)N(Cc1cc(F)cc3c1OCOC3)C(=O)/C2=N\O` [Compound 340], no less than 1000 nM; to `Cc1ccc(CN2C(=O)/C(=N\O)c3cc(Br)ccc32)cc1` [Compound 26], no less than 1000 nM.
For the molecule `O=C(Nc1ccc2c(c1)N(Cc1cc(F)cc3c1OCOC3)C(=O)/C2=N\O)N1CCOCC1` [Compound 257], the Ki was no less than 1000 nM.
The figure for `CC(=O)NCC(=O)Nc1ccc2c(c1)N(Cc1cc(F)cc3c1OCOC3)C(=O)/C2=N\O` [Compound 348] is no less than 1000 nM.
The figure for `O=C(Nc1ccc2c(c1)N(Cc1cc(F)cc3c1OCOC3)C(=O)/C2=N\O)c1cc2ccccc2o1` [Compound 221] is less than 1000 nM; for `COc1cc(CN2C(=O)/C(=N\O)c3cc(C)cc(C)c32)cc(OC)c1` [Compound 94] it is no less than 1000 nM.
Regarding `O=C1/C(=N\O)c2cc(N(CC3CCCCC3)CC3CCCCC3)ccc2N1Cc1cc(F)cc2c1OCOC2` [Compound 310], the Ki is no less than 1000 nM.
Take `O=C(Nc1ccc2c(c1)N(Cc1cc(F)cc3c1OCOC3)C(=O)/C2=N/O)c1cccc(Oc2ccccc2)c1` [Compound 320]: the Ki was no less than 1000 nM.
The figure for `COc1cc(CN2C(=O)/C(=N\O)c3ccc(OC)cc32)cc(OC)c1` [Compound 155] is less than 1000 nM; for `O=C(O)CCCN(CCCC(=O)O)c1ccc2c(c1)/C(=N/O)C(=O)N2Cc1cc(F)cc2c1OCOC2` [Compound 309] it is no less than 1000 nM.
To `O=C(Nc1ccc2c(c1)N(Cc1cc(F)cc3c1OCOC3)C(=O)/C2=N\O)c1cccc(Cl)c1` [Compound 255] belongs less than 1000 nM; to `O=C1/C(=N\O)c2cc(F)ccc2N1Cc1ccc(F)cc1` [Compound 54], no less than 1000 nM.
Take `O=C1/C(=N\O)c2ccccc2N1Cc1cccc(Cl)c1` [Compound 9]: the inhibitory constant (Ki) is no less than 1000 nM.
The figure for `COc1cc(CN2C(=O)/C(=N\O)c3cc(Cl)ccc32)cc(OC)c1` [Compound 74] is less than 1000 nM.
